Experimental data reported in EP4707284A1, “HETEROCYCLIC COMPOUND AND USE THEREOF” (Otsuka Pharmaceutical Co., Ltd., priority 2023, dated 2024).

Assay: Dog irritation study (subcutaneous administration)
Format: in vivo, dogs
Conditions: stated in the cytotoxicity method, no details
Method: Male beagle dogs were purchased at the age of 5-7 months from Kitayama Labes Co., Ltd. and used in the experiment after acclimatization. The breeding environment was as follows: feeding: 250 g of solid feed once a day, water intake: unlimited, number of animals per cage: 1, temperature: 21-25°C, humidity: 50-70%, lighting time: 7:00-19:00. The test formulation was subcutaneously administered to dogs anesthetized with 25 mg/kg thiopental sodium using a plastic syringe at a dose of 10 mg/kg per formulation, changing the position on the back. […] The collected tissues were fixed in 10% neutral buffered formalin, and hematoxylin and eosin-stained specimens were prepared for histopathological examination.

Structure (SMILES): CCCCCC(=O)OCn1c(=O)ccc2ccc(OCCCCN3CCN(c4cccc5sccc45)CC3)cc21 [Reference Example 3 compound, (7-(4-(4-(benzo[b]thiophen-4-yl)piperazin-1-yl)butoxy)-2-oxoquinolin-1(2H)-yl)methyl hexanoate]
- irritation when subcutaneously administered to dogs: showed irritation
